Measurements published in PubChem BioAssay AID2060496 (Molecular Pharmacology Branch, DTP, NCI, 2025).

System: 276233-004-R-J1-PDC complex spheroid viability
Assay: Anticancer human tumor 276233-004-R-J1-PDC patient-derived colon adenocarcinoma cell line growth inhibition [GQUAD]
Settings: for IC50: curve of first compound; for viability, T/C: stronger effect = lower value
Text: DNA G-quadruplex Stabilizer Agents in Combinations in Complex Spheroids
A high-throughput screen of multi-cell type tumor spheroids was designed to identify active combinations of DNA G-quadruplex stabilizer agents and targeted small molecules. Complex spheroids include a stromal component modeled by human endothelial cells (HUVEC) and fibroblasts modeled by human mesenchymal stem cells (MSCs). The concentration ranges selected for each drug and investigational agent were based upon clinically achievable concentrations if the clinical Cmax of the agent was known.
Compounds. The drugs and investigational agents: pidnarulex (CX-5461; NSC782164), APTO-253 (NSC789042), BRACO-19 (NSC847499), peposertib (NSC802822), ceralasertib (NSC780249), elimusertib (NSC800525), camonsertib (NSC841442), AZD-1390 (NSC803789), olaparib (NSC753686), talazoparib (NSC767125), ART-558 (NSC835418), sotorasib (NSC818433), MRTX-1133 (NSC836407), SN-38 (NSC673596), topotecan (NSC609699), etoposide (NSC141540), doxorubicin (NSC123127), gemcitabine (NSC613327), 5-fluorouracil (NSC19893), paclitaxel (NSC125973), vemurafenib (NSC761431), panobinostat (NSC761190), R-306465 (JNJ-16241199; NSC773264), adavosertib (NSC754352), TP-3654 (NSC805149), carboplatin (NSC241240), KSQ-4279 (NSC840948), and staurosporine (NSC755774) were obtained from the National Cancer Institute (NCI) Developmental Therapeutics Program Chemical Repository (34). The FDA-approved anticancer drug set is available from the NCI Developmental Therapeutics Program. […] The stock solutions were prepared in dimethyl sulfoxide (DMSO, Sigma-Aldrich, St. Louis, MO, cat. D2650) at 800-fold the tested concentration and stored at -70 degrees C prior to their use. All drugs and investigational agents were tested over a range starting from a high concentration at or near the clinical Cmax and decreasing in half-log increments. If the clinical Cmax for an agent had not been determined, the highest concentration tested was 10 microM.
2.3 Cell Culture. All cells were maintained in an incubator at 37 degrees C and 5% CO2 with 95% humidity. The PDC lines were cultured according to standard operating procedures established by the NCI PDMR. All PDCs were thawed and cultured in Matrigel-coated flasks prepared with a working solution of 1X Ham's F-12 nutrient mix, without supplementation (Invitrogen, cat. 11765054), 100 U/mL penicillin-streptomycin (Invitrogen, cat. 15140122), and 2.5% Matrigel (Corning Inc., cat. 354248) for the first three passages. The 857933-349-R-J2-PDC line was cultured in 6C/Colon 1B media, which includes advanced DMEM/F-12 (Thermo Fisher Scientific, cat. 12634028), 10 mM HEPES (Thermo Fisher Scientific, cat. 15630080), 1X GlutaMAX supplement (Thermo Fisher Scientific, cat. 35050061), 0.1 mg/mL primocin (InvivoGen, cat. ant-pm-2), 10% defined fetal bovine serum, heat inactivated (HyClone Laboratories Inc., cat. SH30070.03HI), 50% L-WRN conditioned media (ATCC, cat. CRL-3276), 1.25 mM N-Acetyl-L-cysteine (Sigma-Aldrich, cat. A9165), 10 mM nicotinamide (Sigma-Aldrich, cat. N0636), 1X B-27 supplement (Thermo Fisher Scientific, cat. 17504044), 1X N-2 supplement (Thermo Fisher Scientific, cat. 17502048), 10 microM Y-27632 dihydrochloride (Tocris Bioscience, cat. 1254), and 50 ng/mL human EGF recombinant protein (Thermo Fisher Scientific, cat. PHG0311). The 485176-168-R4-J1-PDC line was cultured in Panc media, which includes all 6C/Colon 1B media components plus 100 ng/mL human FGF-10 (Thermo Fisher Scientific, cat. 100-26), 500 nM SB-431542 (Selleckchem, cat. S1067), and gastrin (Tocris, cat. 3006).
[…]

[1] = second compound 0.0316 µM, first compound 0.0316 µM
[2] = second compound 0.0316 µM, first compound 0.1 µM
[3] = second compound 0.0316 µM, first compound 0.316 µM
[4] = second compound 0.0316 µM, first compound 1 µM
[5] = second compound 0.0316 µM, first compound 3.16 µM
[6] = second compound 0.0316 µM, first compound 10 µM
[7] = second compound 0.1 µM, first compound 0.0316 µM
[8] = second compound 0.1 µM, first compound 0.1 µM
[9] = second compound 0.1 µM, first compound 0.316 µM
[10] = second compound 0.1 µM, first compound 1 µM
[11] = second compound 0.1 µM, first compound 3.16 µM
[12] = second compound 0.1 µM, first compound 10 µM
[13] = second compound 0.316 µM, first compound 0.0316 µM
[14] = second compound 0.316 µM, first compound 0.1 µM
[15] = second compound 0.316 µM, first compound 0.316 µM
[16] = second compound 0.316 µM, first compound 1 µM
[17] = second compound 0.316 µM, first compound 3.16 µM
[18] = second compound 0.316 µM, first compound 10 µM
[19] = second compound 1 µM, first compound 0.0316 µM
[20] = second compound 1 µM, first compound 0.1 µM
[21] = second compound 1 µM, first compound 0.316 µM
[22] = second compound 1 µM, first compound 1 µM
[23] = second compound 1 µM, first compound 3.16 µM
[24] = second compound 1 µM, first compound 10 µM
[25] = second compound 3.16 µM, first compound 0.0316 µM
[26] = second compound 3.16 µM, first compound 0.1 µM
[27] = second compound 3.16 µM, first compound 0.316 µM
[28] = second compound 3.16 µM, first compound 1 µM
[29] = second compound 3.16 µM, first compound 3.16 µM
[30] = second compound 3.16 µM, first compound 10 µM
[31] = second compound 10 µM, first compound 0.0316 µM
[32] = second compound 10 µM, first compound 0.1 µM
[33] = second compound 10 µM, first compound 0.316 µM
[34] = second compound 10 µM, first compound 1 µM
[35] = second compound 10 µM, first compound 3.16 µM
[36] = second compound 10 µM, first compound 10 µM
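Note: spheroids exposed to drugs for seven days.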
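Throughout, for viability, T/C: 100% = DMSO vehicle control viability.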

SMILES: CC(C)n1c(=O)n(C)c2cnc3cc(F)c(-c4ccc(OCCCN5CCCCC5)nc4)cc3c21 + CN(C)c1ccc(Nc2c3ccc(NC(=O)CCN4CCCC4)cc3nc3cc(NC(=O)CCN4CCCC4)ccc23)cc1
- IC50 (second compound 0.0316 µM): > 10000 nM
- IC50 (second compound 0.1 µM): > 10000 nM
- IC50 (second compound 0.316 µM): 8480 nM
- IC50 (second compound 1 µM): > 10000 nM
- IC50 (second compound 3.16 µM): > 10000 nM
- IC50 (second compound 10 µM): < 31.6 nM
- viability, T/C [1]: 95.3%
- viability, T/C [2]: 103%
- viability, T/C [3]: 99.6%
- viability, T/C [4]: 92.9%
- viability, T/C [5]: 69.2%
- viability, T/C [6]: 53.1%
- viability, T/C [7]: 91.4%
- viability, T/C [8]: 99.2%
- viability, T/C [9]: 100%
- viability, T/C [10]: 89.2%
- viability, T/C [11]: 60.1%
- viability, T/C [12]: 55.5%
- viability, T/C [13]: 86.7%
- viability, T/C [14]: 84.3%
- viability, T/C [15]: 75.7%
- viability, T/C [16]: 86.1%
- viability, T/C [17]: 68.7%
- viability, T/C [18]: 46.9%
- viability, T/C [19]: 61.7%
- viability, T/C [20]: 57.4%
- viability, T/C [21]: 62.1%
- viability, T/C [22]: 72.7%
- viability, T/C [23]: 72.7%
- viability, T/C [24]: 64.8%
- viability, T/C [25]: 55.9%
- viability, T/C [26]: 53.6%
- viability, T/C [27]: 82.4%
- viability, T/C [28]: 90.1%
- viability, T/C [29]: 81.3%
- viability, T/C [30]: 36.6%
- viability, T/C [31]: 46.4%
- viability, T/C [32]: 54%
- viability, T/C [33]: 63.4%
- viability, T/C [34]: 83.1%
- viability, T/C [35]: 107%
- viability, T/C [36]: 26.4%

SMILES: CC1COCCN1c1cc(C2(O)CC3CCC(C2)O3)c2cnn(-c3ccn[nH]3)c2n1 (centres undefined) + CN(C)c1ccc(Nc2c3ccc(NC(=O)CCN4CCCC4)cc3nc3cc(NC(=O)CCN4CCCC4)ccc23)cc1
- IC50 (second compound 0.0316 µM): 2840 nM
- IC50 (second compound 0.1 µM): 2410 nM
- IC50 (second compound 0.316 µM): 341 nM
- IC50 (second compound 1 µM): 555 nM
- IC50 (second compound 3.16 µM): 90.9 nM
- IC50 (second compound 10 µM): 43.4 nM
- viability, T/C [1]: 74.7%
- viability, T/C [2]: 80.9%
- viability, T/C [3]: 72.7%
- viability, T/C [4]: 69%
- viability, T/C [5]: 47.7%
- viability, T/C [6]: 47.2%
- viability, T/C [7]: 77.4%
- viability, T/C [8]: 89.3%
- viability, T/C [9]: 75%
- viability, T/C [10]: 60.8%
- viability, T/C [11]: 45.2%
- viability, T/C [12]: 46%
- viability, T/C [13]: 64.9%
- viability, T/C [14]: 50.3%
- viability, T/C [15]: 50.4%
- viability, T/C [16]: 41.9%
- viability, T/C [17]: 50.8%
- viability, T/C [18]: 28.8%
- viability, T/C [19]: 55.5%
- viability, T/C [20]: 51.1%
- viability, T/C [21]: 50.1%
- viability, T/C [22]: 47.2%
- viability, T/C [23]: 43.7%
- viability, T/C [24]: 27.6%
- viability, T/C [25]: 57.6%
- viability, T/C [26]: 39.4%
- viability, T/C [27]: 52.8%
- viability, T/C [28]: 37.8%
- viability, T/C [29]: 39.5%
- viability, T/C [30]: 27.3%
- viability, T/C [31]: 53.5%
- viability, T/C [32]: 42.1%
- viability, T/C [33]: 37.6%
- viability, T/C [34]: 37.4%
- viability, T/C [35]: 29.3%
- viability, T/C [36]: 25.4%
